Measurements: PMC6388407 (Toxicological sciences : an official journal of the Society …, 2018)
Where two headings read alike, the source gives them in different places.

How the values were obtained:
[1] = test system: L5178Y mouse lymphoma cells; experiment: MTS cell proliferation assay; assay type: cell-based; settings: 4-h treatment; for IC20: read-out: IC20, MTS assay, L5178Y cells; for reduction in cell viability, MTS assay: at the lowest concentrations tested
[2] = test system: L5178Y mouse lymphoma cells; experiment: Alkaline Comet assay; assay type: cell-based; settings: for lowest concentration that induced significant DNA damage / highest percentage of DNA in tail: 4-h treatment; for lowest concentration that induced significant DNA damage: absence of S9; for highest percentage of DNA in tail: absence of S9, background approximately 5%; for BMDL10, Comet assay: lower limit of the 10% BMD, Hill model of PROAST, %DNA in tail data, without S9
[3] = test system: L5178Y mouse lymphoma cells; experiment: CellTiter-Blue cell viability assay; assay type: cell-based; settings: read-out: IC20, Blue assay; L5178Y cells, 4-h treatment
[4] = test system: L5178Y mouse lymphoma cells; experiment: Cellular ATP level assay; assay type: cell-based; settings: read-out: IC20, ATP assay; L5178Y cells, 4-h treatment
[5] = test system: thymidine kinase (Tk) gene of the L5178Y/Tk+/− −3.7.2C mouse lymphoma cell line; experiment: Mouse lymphoma assay; assay type: cell-based; settings: for BMDL10, MLA without S9: lower limit of the 10% BMD, Hill model of PROAST, MF data; for Ranking, MLA without S9: potency ranking by BMDL10, 1 = most potent
[6] = test system: thymidine kinase (Tk) gene of the L5178Y/Tk+/− −3.7.2C mouse lymphoma cell line; experiment: Mouse lymphoma assay; assay type: cell-based; settings: for BMDL10, MLA with S9: lower limit of the 10% BMD, Hill model of PROAST, MF data; for Ranking, MLA with S9: potency ranking by BMDL10, 1 = most potent
[7] = test system: thymidine kinase (Tk) gene of the L5178Y/Tk+/− −3.7.2C mouse lymphoma cell line; settings: ref Guo et al., 2013, cited from earlier work
[8] = test system: TK6 human lymphoblastoid cells; settings: ref Guo et al., 2013; cited from earlier work
[9] = test system: Tk mutants of L5178Y mouse lymphoma cells; experiment: LOH evaluation of Tk mutants from the MLA; assay type: cell-based; settings: with vs without S9, p < .05
[10] = test system: thymidine kinase (Tk) gene of the L5178Y/Tk+/− −3.7.2C mouse lymphoma cell line; settings: with S9, at concentration that produced 10%–20% RTG; ref Guo et al., 2013; cited from earlier work
[11] = MTS cell proliferation assay; assay type: cell-based, mouse; settings: mouse
[12] = CellTiter-Blue cell viability assay; assay type: cell-based, mouse; settings: mouse, L5178Y mouse lymphoma cells
[13] = test system: Chinese hamster cells; settings: ref Mitchell et al., 1991, cited from earlier work
[14] = Cellular ATP level assay; assay type: cell-based, mouse; settings: mouse, L5178Y mouse lymphoma cells
[15] = test system: Chinese hamster ovary AS52 cells; settings: CHO AS52 cells; ref DeGraff et al., 1992; cited from earlier work
[16] = absence of S9, at the cytotoxicity limit for the MLA
[17] = without S9, at concentration that produced 10%–20% RTG

Structure (SMILES) | IC20 [1] [µM] | lowest concentration that induced significant DNA damage [2] [mM] | highest percentage of DNA in tail [2] [%] | BMDL10, Comet assay [2] | IC20 [3] [µM] | IC20 [4] [µM] | mutant frequency (MF) [5, 16] | BMDL10, MLA without S9 [5] | Ranking, MLA without S9 [5] | BMDL10, MLA with S9 [6] | Ranking, MLA with S9 [6] | reduction in cell viability, MTS assay [1] | effect of metabolic activation on mutational spectra (LOH) [9] | other results
CC1(C)CC(=O)CC(C)(C)N1[O] [4-oxo-TEMPO] | 1550 | 3 | 14 | 1.114 | 1950 | 1730 | 584 × 10^−6 | 0.661 | 1 | 0.058 | 1 |  |  | 
CC1(C)CCCC(C)(C)N1[O] [TEMPO, 2,2,6,6-tetramethylphiperidine-1-oxyl] | 11 | 2 | 28 | 0.454 | 4970 | 1920 |  | 0.981 | 3 | 0.257 | 2 | approximately 50% | significantly altered | mutant frequency (MF) [7, 16]: 208 × 10^−6; MLA result ([7]; earlier study, with and without 1% S9): mutagenic; mutant frequency (MF) [7, 17]: 208 per million cells; micronucleus induction [8]: induced micronuclei; mutant frequency (MF) [10]: 502 per million cells
CC1(C)CC(O)CC(C)(C)N1[O] [4-hydroxy-TEMPO] |  | 4 | 21 | 1.612 |  |  |  | 1.300 | 4 | 1.024 | 4 | approximately 50% | significantly altered | IC20 at 4 h [11]: 356 µM; IC20 at 4 h [12]: 1780 µM; radiation protection factor ([13]; 10 mM for 10 min prior to X-irradiation): 1.3; radiation protection factor ([13]; 100 mM for 10 min prior to X-irradiation): 2.5; IC20 at 4 h [14]: 6390 µM; mutagenicity and toxicity [15]: not mutagenic or toxic
COC1CC(C)(C)N([O])C(C)(C)C1 [4-methoxy-TEMPO] | 30 | 6 | 13 | 3.358 | 2580 | 3870 | 537 × 10^−6 | 0.756 | 2 | 0.770 | 3 | approximately 50% |  | mutant frequency (MF) [5, 17]: 508 per million cells; mutant frequency (MF) ([6]; with S9, at concentration that produced 10%–20% RTG): 961 per million cells
